Values joined by “and” are separate entries in the source; they are usually repeats but may differ in a detail not shown here. Identical values can stand only once.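 Cultured in 96-well plates, cells were exposed to test compound for 48 hours across five concentrations. Here, GI50 denotes the concentration required for 50% inhibition of growth. TGI marks complete inhibition of growth.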 Active and inactive are the calls of the source. Rule as the data show it: active = GI50 below about 0.43 µM; inactive = the rest.
These molecules were tested on MDA-MB-468 breast (assay: inhibition of tumour cell growth, NCI panel, 48 h).
Molecule `O=c1[nH]c2ccccc2n1C1CCNCC1` has a GI50 greater than 100 µM and a TGI greater than 100 µM.
For `Cn1cc(-c2ccc3nc(-c4ccc(CC(=O)Nc5cc(C(C)(C)C)no5)cc4)cnc3c2)cn1`, the GI50 was 0.0702 µM and the TGI was greater than 3 µM.
With `Cn1cc(C2=C(c3ccsc3)C(=O)NC2=O)c2ccccc21` the GI50 was greater than 22.3 µM and the TGI was greater than 25 µM.
Work on `Sc1cccc2cccnc12` yielded a GI50 of 2.71 µM and a TGI of 15.6 µM.
In the case of `CNC(=O)Oc1cc(C(C)C)ccc1Sc1ccc(C(C)C)cc1OC(=O)NC`, the GI50 is reported as 2.34 µM and the TGI is reported as 9.89 µM.
In the case of `O=C1NC(=O)C(c2c[nH]c3ccccc23)=C1c1c[nH]c2ccccc12`, the GI50 is reported as 8.28 µM and the TGI is reported as greater than 25 µM.
`CC1=C(CCCOC(=O)[C@H](N)CC(C)C)C2=C(C)C3(CC3)[C@@](C)(O)C(=O)C2=C1` showed a GI50 of 1.37 µM and a TGI of 4.6 µM.
In the case of `COc1ccc(-c2nc3sc(-c4cc(OC)c(OC)c(OC)c4)nn3c2/C=C2/C(=O)Nc3ccc(F)cc32)cc1`, the GI50 is reported as 2.53 µM and the TGI is reported as 7.88 µM.
With `O=C(N/N=C/c1ccc(Cl)cc1)c1ccc(NC(=O)c2ccccn2)cc1` the GI50 was 23.2 µM and the TGI was 95.2 µM.
Work on `C=CCc1cccc(C=O)c1O` yielded a GI50 greater than 100 µM and a TGI greater than 100 µM.
Molecule `Cc1[nH]nc2ccc(-c3nc4cnc(N5CCN(C)CC5)cn4c3Nc3ccc(F)cc3Br)cc12` has a GI50 of 1.57 µM and a TGI of 3.31 µM.
Molecule `COC(=O)c1cc2ccc(O)c(O)c2cn1` has a GI50 of 14.1 µM and a TGI of 27.2 µM.
`CC(=O)/C(=C\c1ccc(Cl)cc1)c1ccccc1` showed a GI50 of 0.0361 µM and a TGI greater than 100 µM.
With `O=[N+]([O-])c1ccc(C2=NCCO2)cc1` the GI50 was greater than 100 µM and the TGI was greater than 100 µM.
Molecule `COc1cccc2c1nc(C(F)F)n2-c1nc(-c2ccc(NS(=O)(=O)CCN(C)C)cc2)nc(N2CCOCC2)n1` has a GI50 of 0.0711 µM and a TGI of 0.492 µM.
`N#CCCNc1nonc1-c1nc2ccccc2n1CC(=O)c1ccc(N)cc1` was tested, and the GI50 was 0.0168 µM and the TGI was 0.0683 µM.
`N#CC1=C(N)Oc2c(sc3c(Br)cccc23)C1c1ccc([N+](=O)[O-])cc1` (stereo not drawn) showed a GI50 of 0.318 µM and a TGI of 7.27 µM.
With `CC(C)(C)CC(C)(C)c1ccc(OCCO)cc1` the outcome was “inactive”.
Work on `O=C(/C=C\c1ccc(O)c(O)c1)c1ccccc1O` yielded a GI50 of 2.98 µM and a TGI of 16.7 µM.
In the case of `CCOC(=O)c1noc2c1CCc1c-2cn(Cc2ccc(OC)cc2)c1-c1cc(OC)c(OC)c(OC)c1`, the GI50 is reported as 5.62 µM and the TGI is reported as greater than 100 µM.
`C[C@@H]1CN2[C@H]3[C@@H]1CC[C@]31CCC(=O)O[C@]1(C)[C@H]1CC[C@H]3CCC=C3[C@@H]12` showed a GI50 greater than 30 µM and a TGI greater than 30 µM.
Molecule `CCN(Cc1ccc(OC)cc1)c1ccc(CO)c(Cl)c1` has a GI50 of 0.0167 µM and a TGI of 0.0413 µM.
`O=C(NCc1cn(Cc2cccc(Oc3ccccc3)c2)nn1)c1cccnc1Nc1ccc(F)cc1` was tested, and the GI50 was 5.17 µM and the TGI was greater than 100 µM.
Work on `CN1C(=O)C(c2c[nH]c3ccccc23)=C(c2c[nH]c3ccccc23)C1=O` yielded a GI50 of 5.12 µM and a TGI of 19 µM.
Work on `CCCCn1c(=O)[nH]c(N)c([C@@H]2c3c([nH]c(=O)n(CCCC)c3=O)Oc3ccc4ccccc4c32)c1=O` yielded a GI50 of 13.4 µM and a TGI of 33.4 µM.
`COC(=O)[C@@H](C)C[C@H](Cc1ccccc1)NC(=O)c1nc([C@@H](C[C@H](C(C)C)N(C)C(=O)[C@@H](NC(=O)[C@H]2C[C@H](O)CCN2C)C(C)C)OC(C)=O)sc1C(C)C` was tested, and the GI50 was less than 0.00111 µM.
`COc1cc2cc(NCc3cccc(Cl)c3)nc(C)c2cc1OC` was tested, and the GI50 was 4.06 µM and the TGI was 24.3 µM.
`O=C1C=C(Nc2ccccc2)c2ccccc2C1=O` gave a GI50 of 2.04 µM and a TGI of 5.94 µM.
Work on `Nc1c(C(=O)Nc2cccc(Cl)c2)sc2nc3c(cc12)C(=O)CCC3` yielded a GI50 of 0.0879 µM and a TGI of 1.3 µM.
`CCC(=C(c1ccc(OCCN2CCCCC2)cc1)c1ccc(OCCN2CCCCC2)cc1)c1ccc(Cl)cc1` gave a GI50 of 3.33 µM and a TGI greater than 16.7 µM.
In the case of `Cn1ncnc1[C@@H]1c2n[nH]c(=O)c3cc(F)cc(c23)N[C@H]1c1ccc(F)cc1`, the GI50 is reported as greater than 100 µM and the TGI is reported as greater than 100 µM.
`COc1cc(/C=C/C(=O)c2cccc(-n3cc(-c4ccccc4)[nH]c3=O)c2)cc(OC)c1OC` showed a GI50 of 1.8 µM and a TGI of 3.54 µM.
Work on `CC(Nc1ncnc2ccc(-c3cnc(N)nc3)cc12)c1ccccc1` (stereo not drawn) yielded a GI50 of 1.17 µM and a TGI of 4.03 µM.
`CC1(C)N=C(N)N=C(N)N1c1ccc(OCCCNC(=O)Nc2ccc(S(=O)(=O)F)cc2)c(Cl)c1` was tested, and the GI50 was 0.818 µM and the TGI was 29.1 µM.
Work on `O=C(CCCc1ccc(N(CCCl)CCCl)cc1)NCc1ccccc1` yielded a GI50 of 2.75 µM and a TGI of 10.3 µM.
`COC(=O)N[C@H]1CCc2cc(OC)c(OC)c(OC)c2-c2ccc(SC)c(=O)cc21` showed a GI50 of less than 0.01 µM and a TGI greater than 100 µM.
In the case of `O=S(=O)(NCCCNc1cc(-c2cn(-c3ccccc3)nc2-c2cccc(O)c2)ccn1)c1ccc(C(F)(F)F)cc1`, the GI50 is reported as 1.8 µM and the TGI is reported as 5.55 µM.
Molecule `COC(=O)c1c2c(c(C)[n+]([O-])c1C)C(=O)C(NCc1ccc(OC)cc1)=CC2=O` has a GI50 of 1.27 µM and a TGI of 3.06 µM.
`C/C(=C\C(=O)O[C@H]1[C@@H]2[C@H](C)CC[C@H]2[C@]2(C)O[C@@]1(C1CCCCC1)C[C@H]2OC(=O)CO)c1ccccc1` was tested, and the GI50 was 6.7 µM and the TGI was 13.4 µM.
`Cc1ccc(NC(=O)c2ccc(CN3CCN(C)CC3)cc2)cc1Nc1nc(-c2cccnc2)cs1` was tested, and the GI50 was 2.98 µM and 2.62 µM and the TGI was 15.3 µM and > 10 µM.
`Nc1ccc(/C=C/c2ccc3ncccc3c2)cc1` was tested, and the GI50 was greater than 100 µM and the TGI was greater than 100 µM.
In the case of `CC(C)=CCc1cc2c(cc1O)C1=C(C(=O)C3=C(NCCS3(=O)=O)C1=O)C(C=C(C)C)O2` (stereo not drawn), the GI50 is reported as 3.27 µM and the TGI is reported as 12.8 µM.
With `CCN1CCN(CCC(=O)Nc2cccc(-n3cc(-c4ccncc4)c(-c4ccc(Cl)c(OC)c4)n3)c2)CC1` the GI50 was 0.325 µM and the TGI was 1.41 µM.
In the case of `CC(C)=CCC/C(C)=C/CC/C(C)=C/CSC[C@H](NC(=O)CCCCCN1CCN(C)CC1)C(=O)NC1CCCCCC1`, the GI50 is reported as 2.06 µM and the TGI is reported as 4.89 µM.
Molecule `CCOc1ccc(N(C)c2ccc(/C=C/C3=[N+](C)c4ccccc4C3(C)C)cc2)cc1` has a GI50 of 0.161 µM and a TGI of 1.03 µM.
`CC(C)=CC[C@@H]1CC2(CC=C(C)C)C(=O)C(OC3(C(=O)c4ccccc4)C(=O)C4(CC=C(C)C)C[C@@H](CC=C(C)C)C(C)(C)C(CC=C(C)C)(C4=O)C3=O)(C(=O)c3ccccc3)C(=O)C(CC=C(C)C)(C2=O)C1(C)C` (stereo partly drawn) gave a GI50 of 1.23 µM and a TGI of 3.28 µM.
Work on `COc1ccc(C2=NN(C(N)=S)C(c3ccc4c(c3)OCO4)C2)cc1` (stereo not drawn) yielded a GI50 of 2.68 µM and a TGI of 11 µM.
With `CN1CCN(Cc2ccc(NC(=O)c3cncc(C#Cc4cnc(N)c5ncccc45)c3)cc2C(F)(F)F)CC1` the GI50 was 0.368 µM and the TGI was 1.68 µM.
Work on `COc1ccc2c(c1)[C@@H](NC(C)=O)CCc1cc(OC)c(OC)c(OC)c1-2` yielded a GI50 of 0.0698 µM and a TGI greater than 100 µM.
In the case of `ClC1=C(Cl)C(Cl)(C2(Cl)C(Cl)=C(Cl)C(Cl)=C2Cl)C(Cl)=C1Cl`, the GI50 is reported as 0.334 µM and the TGI is reported as 1.42 µM.

Reference: PubChem BioAssay (NCI)
